# Tests used:
# EBP = experiment: Analysis of mouse brain sterol levels in vivo; parameters: species or system C57-BL6 mice; conditions: mice, 10 mg/kg once daily for 3 days, versus vehicle
# Procedure: Ten to twelve week old male C57BL/6 mice were injected with Cis-N-cyclohexyl-N-ethyl-3-(3-chloro-4-cyclohexylphenyl)prop-2-enylamine dissolved in sterile saline daily for three days. Mice were anaesthetized with isoflurane and perfused with phosphate buffered saline to remove blood from the brain. Brains were collected and flash frozen using liquid nitrogen. The samples were pulverized and 50-100 milligrams of tissue were collected for further processing. A modified Folch protocol was used for extraction of sterols. Briefly, samples were resuspended in a 2:1 chloroform/methanol mixture and homogenized. Cell debris was removed by centrifugation at 4000 g for 10 min. The solution was dried under air and resuspended in hexane with a cholesterol-D7 standard and dried again. Lipids were derivatized with 70 al of bis(trimethylsilyl)trifluoroacetamide; 2 μls were injected and analyzed by GC/MS as described above.
# Cis-N-cyclohexyl-N-ethyl-3-(3-chloro-4-cyclohexylphenyl)prop-2-enylamine was dissolved in a vehicle solution containing 80/10/10 saline/DMSO/Kolliphor. C57-BL6 mice were injected at 10 mg/kg once daily for 3 days with either vehicle (DMSO) or Cis-N-cyclohexyl-N-ethyl-3-(3-chloro-4-cyclohexylphenyl)prop-2-enylamine (n=5). (5 mice/condition). After 3 days, mice were anesthetized with isoflurane and perfused with phosphate buffered saline to remove blood from the brain. […] Lipids were derivatized with 70 ul of bis(trimethylsilyl) trifluoroacetamide; Samples were analyzed in […] using electron impact ionization; ion fragment abundances were integrated. 2 ul was analyzed by gas chromatography/mass spectrometry using an Agilent 5973 Network Mass Selective Detector equipped with a 6890 gas chromatograph system and a HP-5MS capillary column ([…]). Samples were analyzed in full scan mode using electron impact ionization; ion fragment peaks were integrated to calculate sterol abundance, and quantitation was relative to cholesterol-d7. The following ion fragments were used to quantitate each metabolite: zymostenol (458), zymosterol (456), Desmosterol. […]
# human EBP = target: T1, human EBP (Homo sapiens, UniProt Q15125); experiment: Zymostenol level in human cortical spheroids (on-target EBP inhibition); format: cell-based; conditions: 100 nM, versus DMSO
# T1 construct: endogenous in cells; host or cells: human cortical spheroids derived from pluripotent stem cells
# T1 sequence (Q15125 whole entry): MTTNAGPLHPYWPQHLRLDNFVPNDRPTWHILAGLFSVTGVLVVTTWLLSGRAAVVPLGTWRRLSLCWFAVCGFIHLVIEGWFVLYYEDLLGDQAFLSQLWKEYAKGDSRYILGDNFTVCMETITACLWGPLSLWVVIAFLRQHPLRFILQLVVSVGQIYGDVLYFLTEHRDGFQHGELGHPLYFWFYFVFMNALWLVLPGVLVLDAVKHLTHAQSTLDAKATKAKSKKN
# corpus callosum = experiment: LPC-induced demyelination in corpus callosum, DTI-MRI fractional anisotropy; format: in vivo, Sprague-Dawley male rats; conditions: rats, 20 mg/kg intraperitoneal QD
# Procedure: In total, 30 Sprague-Dawley male rats (˜200-300 g) were infused with lysophosphatidylcholine (LPC) on the ipsilateral side and with vehicle for LPC on the contralateral side of the corpus callosum in order to induce demyelination. […] Cis-N-cyclohexyl-N-ethyl-3-(3-chloro-4-cyclohexylphenyl)prop-2-enylamine was diluted to a final concentration of 2.5% ETOH and 2.5% Kolliphor in Saline. DTI-MRI was used as a primary method to quantify the demyelinated lesion and to assess the organization of white matter in corpus callosum over time, on days 3, 10 and 15. Day 3 served as a baseline followed by repeated analyses during the therapeutic period. On day 15, the animals were euthanized and tissue samples collected. The amount of demyelination and the extent of neuronal loss were analyzed by histological analysis of MBP and Nissl substance, respectively, in corpus callosum.
# Demyelination in corpus callosum was induced by stereotactic infusion of lysophospatidylcholine (LPC, Santa Cruz, Calif., USA) directly to the target tissue. First, rats were anesthetized with 5% isoflurane (in 70% N20 and 30% 02; flow 300 ml/min) and placed in a stereotactic frame. […]
# Analgesics were administered during and after the surgery. […] Rats were carefully monitored by laboratory personnel twice a day and any rats prematurely fulfilling the criteria for humane end-points were euthanized during the study. […]
smiles,measurement,setting,value
CCN(C/C=C\c1ccc(C2CCCCC2)c(Cl)c1)C1CCCCC1 [Cis-N-cyclohexyl-N-ethyl-3-(3-chloro-4-cyclohexylphenyl)prop-2-enylamine],brain levels of desmosterol,EBP,decreased
same,brain levels of zymostenol,EBP,increased
same,brain levels of zymosterol,EBP,increased
same,zymostenol in human cortical spheroid cells (FIG. 6),human EBP,accumulation of EBP substrate zymostenol
same,"ipsilateral FA measurements, difference between the groups at Day 15",corpus callosum; Day 15,trend in improvement
same,fractional anisotropy (FA) value of the ipsilateral side (FIG. 8B),"corpus callosum; days 3-15 after LPC infusion, versus vehicle",noticeable recovery of the FA value
